US10167262B2, “Herbicidal substituted 3-arylpyrazoles” (FMC CORPORATION, priority 2014, dated 2019)
Like-named read-outs stand apart in the source and are kept apart here.

Legend:
Format in all cases: in vivo
[1] = tested on: yellow nutsedge (Cyperus esculentus); experiment: Test C pre-/postemergence greenhouse test, plant response rating 0-100; settings: Cyperus; for pest or weed control at 62 g/ha: 62 g ai/ha; for pest or weed control at 125 g/ha: 125 g ai/ha; for pest or weed control at 250 g/ha: 250 g ai/ha
In short: (§1)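 Pre-emergence soil and post-emergence foliar sprays were applied simultaneously to seeded loam–sand pots and to 1–4-leaf plants in peat medium; greenhouse holding lasted 13–15 days, then plants were scored visually from 0 (no effect) to 100 (complete control).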

[2] = tested on: blackgrass (Alopecurus myosuroides); experiment: as above; settings: Alopecurus myosuroides; for pest or weed control at 62 g/ha: 62 g ai/ha; for pest or weed control at 125 g/ha: 125 g ai/ha; for pest or weed control at 250 g/ha: 250 g ai/ha
In short: as §1

[3] = tested on: large (Lg) crabgrass (Digitaria sanguinalis); experiment: as above; settings: Digitaria sanguinalis; for pest or weed control at 62 g/ha: 62 g ai/ha; for pest or weed control at 125 g/ha: 125 g ai/ha; for pest or weed control at 250 g/ha: 250 g ai/ha
In short: as §1

[4] = tested on: giant foxtail (Setaria faberii); experiment: as above; settings: Setaria faberi; for pest or weed control at 62 g/ha: 62 g ai/ha; for pest or weed control at 125 g/ha: 125 g ai/ha; for pest or weed control at 250 g/ha: 250 g ai/ha
In short: as §1

[5] = tested on: lambsquarters (Chenopodium album); experiment: as above; settings: Chenopodium album; for pest or weed control at 62 g/ha: 62 g ai/ha; for pest or weed control at 125 g/ha: 125 g ai/ha; for pest or weed control at 250 g/ha: 250 g ai/ha
In short: as §1

[6] = tested on: soybean (Glycine max); experiment: as above; settings: Glycine max; for plant injury at 62 g/ha: 62 g ai/ha; for plant injury at 125 g/ha: 125 g ai/ha; for plant injury at 250 g/ha: 250 g ai/ha
In short: as §1

[7] = tested on: morningglory (Ipomoea coccinea); experiment: as above; settings: Ipomoea; for pest or weed control at 62 g/ha: 62 g ai/ha; for pest or weed control at 125 g/ha: 125 g ai/ha; for pest or weed control at 250 g/ha: 250 g ai/ha
In short: as §1

[8] = tested on: johnsongrass (Sorghum halepense); experiment: as above; settings: Sorghum halepense; for pest or weed control at 62 g/ha: 62 g ai/ha; for pest or weed control at 125 g/ha: 125 g ai/ha; for pest or weed control at 250 g/ha: 250 g ai/ha
In short: as §1

[9] = tested on: winter wheat (Triticum aestivum); experiment: as above; settings: Triticum aestivum; for plant injury at 62 g/ha: 62 g ai/ha; for plant injury at 125 g/ha: 125 g ai/ha; for plant injury at 250 g/ha: 250 g ai/ha
In short: as §1

[10] = tested on: galium (catchweed bedstraw, Galium aparine); experiment: as above; settings: Galium; for pest or weed control at 62 g/ha: 62 g ai/ha; for pest or weed control at 125 g/ha: 125 g ai/ha; for pest or weed control at 250 g/ha: 250 g ai/ha
In short: as §1

[11] = tested on: wild oat (Avena fatua); experiment: Test C postemergence greenhouse test, plant response rating 0-100; settings: Avena fatua, post-emergence
In short: (§2)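 Postemergence spray onto 1–4-leaf potted seedlings, greenhouse incubation 13–15 days. Visual percent-control rating (0–100) against untreated plants.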

[12] = tested on: chickweed (common chickweed, Stellaria media); experiment: as above; settings: Stellaria media, post-emergence
In short: as §2

[13] = tested on: kochia (Kochia scoparia); experiment: as above; settings: Bassia scoparia, post-emergence
In short: as §2

[14] = post-emergence, Postemergence, read-out: Plant response rating (0 to 100), Nutsedge, Yellow
[15] = post-emergence, Postemergence, scale 0 to 100
[16] = post-emergence, Postemergence, 500 g ai/ha, scale 0 to 100
[17] = pre-emergence, Preemergence, 31 g ai/ha
[18] = pre-emergence, Preemergence, read-out: Plant response rating, Nutsedge, Yellow
[19] = pre-emergence, Preemergence, read-out: Plant response rating, Blackgrass
[20] = post-emergence, Postemergence, read-out: Plant response rating (0 to 100), Crabgrass, Large
[21] = pre-emergence, Preemergence, read-out: Plant response rating, Crabgrass, Large
[22] = post-emergence, Postemergence, read-out: Plant response rating (0 to 100), Foxtail, Giant
[23] = pre-emergence, Preemergence, read-out: Plant response rating, Foxtail, Giant
[24] = post-emergence, Postemergence, read-out: Plant response rating (0 to 100), Lambsquarters
[25] = pre-emergence, Preemergence, read-out: Plant response rating, Lambsquarters
[26] = post-emergence, Postemergence, read-out: Plant response rating (0 to 100), Soybean
[27] = pre-emergence, Preemergence, read-out: Plant response rating, Soybean
[28] = post-emergence, Postemergence, read-out: Plant response rating (0 to 100), Morningglory
[29] = pre-emergence, Preemergence, read-out: Plant response rating, Morningglory
[30] = post-emergence, Postemergence, read-out: Plant response rating (0 to 100), Johnsongrass
[31] = pre-emergence, Preemergence, read-out: Plant response rating, Johnsongrass
[32] = post-emergence, Postemergence, read-out: Plant response rating (0 to 100), Wheat
[33] = pre-emergence, Preemergence, read-out: Plant response rating, Wheat
[34] = post-emergence, Postemergence, read-out: Plant response rating (0 to 100), Galium
[35] = pre-emergence, Preemergence, read-out: Plant response rating, Galium

SMILES: O=C(c1ccccc1)c1cn(CO)nc1-c1cc(Cl)cc(Cl)c1 [Compound 15, [3-(3,5-dichlorophenyl)-1-(hydroxymethyl)-1H-pyrazol-4-yl]phenylmethanone]
- pest or weed control at 62 g/ha [1, 14]: 0%
- pest or weed control at 125 g/ha [1, 14]: 0%
- pest or weed control at 250 g/ha [1, 15]: 0%
- pest or weed control at 500 g/ha [1, 16]: 0%
- pest or weed control at 31 g/ha [1, 17]: 0%
- pest or weed control at 62 g/ha [1, 18]: 0%
- pest or weed control at 125 g/ha [1, 18]: 0%
- pest or weed control at 250 g/ha ([1]; pre-emergence, Preemergence): 0%
- pest or weed control at 62 g/ha ([2]; post-emergence, Postemergence, read-out: Plant response rating (0 to 100), Blackgrass): 0%
- pest or weed control at 125 g/ha ([2]; post-emergence, Postemergence, scale 0 to 100, read-out: Plant response rating, Blackgrass): 0%
- pest or weed control at 250 g/ha [2, 15]: 0%
- pest or weed control at 500 g/ha [2, 16]: 0%
- pest or weed control at 31 g/ha ([2]; pre-emergence, Preemergence, 31 g ai/ha, read-out: Plant response rating, Blackgrass): 0%
- pest or weed control at 62 g/ha [2, 19]: 0%
- pest or weed control at 125 g/ha [2, 19]: 0%
- pest or weed control at 250 g/ha ([2]; pre-emergence, Preemergence): 0%
- pest or weed control at 62 g/ha [3, 20]: 0%
- pest or weed control at 125 g/ha [3, 20]: 0%
- pest or weed control at 250 g/ha [3, 15]: 0%
- pest or weed control at 500 g/ha [3, 16]: 0%
- pest or weed control at 31 g/ha ([3]; pre-emergence, Preemergence, 31 g ai/ha, read-out: Plant response rating, Crabgrass, Large): 0%
- pest or weed control at 62 g/ha [3, 21]: 0%
- pest or weed control at 125 g/ha [3, 21]: 0%
- pest or weed control at 250 g/ha ([3]; pre-emergence, Preemergence): 0%
- pest or weed control at 62 g/ha [4, 22]: 0%
- pest or weed control at 125 g/ha [4, 22]: 0%
- pest or weed control at 250 g/ha [4, 15]: 0%
- pest or weed control at 500 g/ha [4, 16]: 10%
- pest or weed control at 31 g/ha ([4]; pre-emergence, Preemergence, 31 g ai/ha, read-out: Plant response rating, Foxtail, Giant): 0%
- pest or weed control at 62 g/ha [4, 23]: 0%
- pest or weed control at 125 g/ha [4, 23]: 0%
- pest or weed control at 250 g/ha ([4]; pre-emergence, Preemergence): 0%
- pest or weed control at 62 g/ha [5, 24]: 75%
- pest or weed control at 125 g/ha [5, 24]: 80%
- pest or weed control at 250 g/ha [5, 15]: 80%
- pest or weed control at 500 g/ha [5, 16]: 90%
- pest or weed control at 31 g/ha [5, 17]: 100%
- pest or weed control at 62 g/ha [5, 25]: 100%
- pest or weed control at 125 g/ha [5, 25]: 100%
- pest or weed control at 250 g/ha ([5]; pre-emergence, Preemergence): 100%
- plant injury at 62 g/ha [6, 26]: 0%
- plant injury at 125 g/ha [6, 26]: 0%
- plant injury at 250 g/ha [6, 15]: 0%
- plant injury at 500 g/ha [6, 16]: 5%
- plant injury at 62 g/ha [6, 27]: 0%
- plant injury at 125 g/ha [6, 27]: 0%
- plant injury at 250 g/ha ([6]; pre-emergence, Preemergence): 0%
- pest or weed control at 62 g/ha [7, 28]: 0%
- pest or weed control at 125 g/ha [7, 28]: 0%
- pest or weed control at 250 g/ha [7, 15]: 10%
- pest or weed control at 500 g/ha [7, 16]: 20%
- pest or weed control at 31 g/ha [7, 17]: 0%
- pest or weed control at 62 g/ha [7, 29]: 0%
- pest or weed control at 125 g/ha [7, 29]: 0%
- pest or weed control at 250 g/ha ([7]; pre-emergence, Preemergence): 0%
- pest or weed control at 62 g/ha [8, 30]: 0%
- pest or weed control at 125 g/ha [8, 30]: 0%
- pest or weed control at 250 g/ha [8, 15]: 0%
- pest or weed control at 500 g/ha [8, 16]: 0%
- pest or weed control at 31 g/ha [8, 17]: 0%
- pest or weed control at 62 g/ha [8, 31]: 0%
- pest or weed control at 125 g/ha [8, 31]: 0%
- pest or weed control at 250 g/ha ([8]; pre-emergence, Preemergence): 0%
- plant injury at 62 g/ha [9, 32]: 0%
- plant injury at 125 g/ha [9, 32]: 0%
- plant injury at 250 g/ha [9, 15]: 0%
- plant injury at 500 g/ha [9, 16]: 0%
- plant injury at 62 g/ha [9, 33]: 0%
- plant injury at 125 g/ha [9, 33]: 0%
- plant injury at 250 g/ha ([9]; pre-emergence, Preemergence): 0%
- pest or weed control at 62 g/ha [10, 34]: 0%
- pest or weed control at 125 g/ha [10, 34]: 0%
- pest or weed control at 250 g/ha [10, 15]: 10%
- pest or weed control at 500 g/ha [10, 16]: 45%
- pest or weed control at 31 g/ha ([10]; pre-emergence, Preemergence, 31 g ai/ha, read-out: Plant response rating, Galium): 0%
- pest or weed control at 62 g/ha [10, 35]: 0%
- pest or weed control at 125 g/ha [10, 35]: 0%
- pest or weed control at 250 g/ha ([10]; pre-emergence, Preemergence): 0%
- pest or weed control at 62 g/ha ([11]; 62 g ai/ha): 0%
- pest or weed control at 125 g/ha ([11]; 125 g ai/ha): 0%
- pest or weed control at 250 g/ha ([11]; 250 g ai/ha, scale 0 to 100): 0%
- pest or weed control at 500 g/ha ([11]; 500 g ai/ha, scale 0 to 100): 0%
- pest or weed control at 62 g/ha ([12]; 62 g ai/ha): 95%
- pest or weed control at 125 g/ha ([12]; 125 g ai/ha): 95%
- pest or weed control at 250 g/ha ([12]; 250 g ai/ha, scale 0 to 100): 100%
- pest or weed control at 500 g/ha ([12]; 500 g ai/ha, scale 0 to 100): 100%
- pest or weed control at 62 g/ha ([13]; 62 g ai/ha): 70%
- pest or weed control at 125 g/ha ([13]; 125 g ai/ha): 85%
- pest or weed control at 250 g/ha ([13]; 250 g ai/ha, scale 0 to 100): 85%
- pest or weed control at 500 g/ha ([13]; 500 g ai/ha, scale 0 to 100): 90%
